Experimental data taken from BigSolDB 2.1.

O=C1C(CCS(=O)c2ccccc2)C(=O)N(c2ccccc2)N1c1ccccc1 (stereo not drawn)
solubility (mole fraction)
Details	283.15 K	288.15 K	293.15 K	298.15 K	303.15 K	308.15 K	313.15 K	318.15 K	323.15 K
in 2-butanone	0.0136	0.0157	0.0199	0.0241	0.0288	0.0333	0.0388	0.0495	0.0601
in acetone	0.0138	0.0165	0.02	0.0244	0.0293	0.0371	0.0452	0.0524	0.0745
in acetonitrile	0.0131	0.0155	0.0213	0.0265	0.0334	0.0474	0.0648	0.0799	0.103
in ethanol	0.00156	0.00211	0.0027	0.00356	0.0045	0.00542	0.00719	0.00956	0.0137
in isopropanol	0.000256	0.000609	0.00104	0.00204	0.00302	0.0045	0.00583	0.0071	0.00937
in methanol	0.0026	0.00318	0.00401	0.00508	0.00679	0.00864	0.0114	0.0176	0.0278
in methyl acetate	0.00978	0.0109	0.0139	0.0161	0.0195	0.0222	0.0272	0.0345	0.0485
in n-butanol	0.00169	0.00245	0.00314	0.00438	0.00592	0.00724	0.00971	0.0129	0.0166
in n-pentanol	0.00284	0.00357	0.00429	0.0053	0.00627	0.00725	0.00824	0.00921	0.0109
in n-propanol	0.00198	0.00266	0.00347	0.00485	0.00617	0.00752	0.0101	0.0132	0.0183
in sec-butanol	0.0024	0.00301	0.00388	0.0047	0.00546	0.00655	0.00876	0.0109	0.0156
in water	3.6e-05	6.32e-05	0.000111	0.000176	0.000264	0.000352	0.000479	0.000615	0.000777
